Test results published in patent US10047067B2, “Composition for treating kidney disease comprising pyrazole derivative” (Ewha University-Industry Collaboration Foundation, priority 2012, dated 2018).

Tested on: collagen Iα1 expression in proximal tubular cells (mProx24)
Test: Inhibitory effect on collagen Iα1 expression in proximal tubular cells (hTGF-β1 stimulated, real-time PCR)
Assay type: cell-based
Conditions: Mus musculus
Protocol: mProx24, which is a name of the proximal tubular cells derived from proximal tubule segments obtained by finely sectioning the kidney of adult C57BL6/J mice, was granted from Professor Sugaya, St. Marianna University School of Medicine, Kanagawa, Japan. mProx24 was cultured in DMEM (Dulbecco's modified Eagle's medium) supplemented with 10% fetal calf serum (FCS, Gibco), 100 U/ml penicillin, 100 μg/ml streptomycin, and 44 mM NaHCO3 at 37° C. in a 5% CO2 atmosphere. For quantitation of RNA expression, the cells were cultured in 6-well plates. When the cells grew 90% confluent, the medium was changed with a fresh 0.15% FCS (Gibco)-supplemented DMEM. Incubation in this medium for 24 hrs halted the cell growth to synchronize the growth cycle in the cells. Compounds of Examples 1 to 9 and Comparative Example were respectively dissolved in DMSO (dimethylsulfoxide) to form a concentration of 50 mM, and subjected to serial dilution to 10 mM, 1 mM, 0.1 mM, and 0.01 mM. 10 mM, 1 mM, 0.1 mM, and 0.01 mM solutions of each of the compounds of Examples 1 to 9 and Comparative Example were 1,000-fold diluted in 0.15% FCS (Gibco)-supplemented DMEM to form final concentrations of 10 μM, 1 μM, 0.1 μM, and 0.01 μM, respectively. In addition, 0 μM (DMSO 1 μL) was used. The cells were incubated for 1 hr in the dilutions and then for 6 hrs in the presence of 5 ng/ml recombinant human transforming growth factor-β1 (hTGF-β1, R&D Systems). For the control, hTGF-β1 was not used. Total RNA was extracted from mProx24 using Trizol (Invitrogen). For quantitation of mRNA expression, a reaction volume of 20 μL including cDNA transcripts, primer pairs, and SYBR Green PCR Master Mix (Applied Biosystems) was subjected to real-time PCR with the aid of StepOnePlus (Applied Biosystems) (real-time PCR condition: 95° C., 10 min→40 thermal cycles of denaturation at 95° C. for 15 sec and primer annealing at 60° C. for 1 min→95° C. for 15 sec, 60° C. for 1 min, and 95° C. for 15 sec to measure a melting curve). Quantitation was normalized to 18S rRNA expression level. A pair of primers for mouse collagen Iα1 were 5′-[…]-3′(SEQ ID NO: 13) and 5′-[…]-3′ (SEQ ID NO: 14). Forward and reverse primers for mouse r18S rRNA were 5′-CGAAAGCATTTGCCAAGAAT-3′ (SEQ ID NO: 11) and 5′-AGTCGGCATCGTTTATGGTC-3′ (SEQ ID NO: 12), respectively.
Experiment results are given in Tables 3 to 12 and FIGS. 4 to 13. Tables 3 to 12 and FIGS. 4 to 13 show inhibitory effects of the compounds of Examples 1 to 9 and Comparative Example 1 on collagen Iα1 expression in proximal tubular cells.
Data of Tables 3 to 12 and FIGS. 4 to 13 are measurements of experiments repeated three to five times for each concentration, and are expressed as mean±standard error (SE). Statistic comparison among the groups was analyzed by ANOVA and Fisher's least significant difference test, with significance at p<0.05. *P<0.05 vs. WT, †P<0.05 vs. DM.
In Tables 3 to 12, mean values of expression level ratios of collagen Iα1 (Col1α) to 18S rRNA (18S), and % inhibition against collagen Iα1 expression for each group are shown, together with IC50 value (μM). In this regard, % inhibition means relative inhibition to 100% for the control and 0% for the group that was treated with hTGF-β1 but not with any of the compounds of Examples or Comparative Example.

For `CCCc1c(-c2ccccc2)nn(-c2ccccn2)c1O.Cl` [Compound 18-278, 1-(pyridin-2-yl)-3-phenyl-4-propyl-1H-pyrazol-5-ol.HCl], the mrna remaining at 0.01 µM (Col1, 0.01 μM compound, mProx24, 5 ng/ml hTGF-β1 6 hrs, relative to hTGF-β1 alone = 1, read-out: Mean expression level ratio of collagen Iα1 (Col1α) to 18S rRNA) was 82.1%, the mrna remaining at 0.1 µM (Col1, 0.1 μM compound, mProx24, 5 ng/ml hTGF-β1 6 hrs, relative to hTGF-β1 alone = 1, read-out: Mean expression level ratio of collagen Iα1 (Col1α) to 18S rRNA) was 70.1% and the mrna remaining at 1 µM (Col1, 1 μM compound, mProx24, 5 ng/ml hTGF-β1 6 hrs, relative to hTGF-β1 alone = 1, read-out: Mean expression level ratio of collagen Iα1 (Col1α) to 18S rRNA) was 51.6%. It also gave a mrna remaining at 10 µM (Col1, 10 μM compound, mProx24, 5 ng/ml hTGF-β1 6 hrs, relative to hTGF-β1 alone = 1, read-out: Mean expression level ratio of collagen Iα1 (Col1α) to 18S rRNA) of 36.9%, an inhibition at 0.01 µM (0.01 μM compound, mProx24, 100% = control without hTGF-β1, 0% = hTGF-β1 alone, read-out: expression inhibition rate (collagen Iα1)) of 20% and an inhibition at 0.1 µM (0.1 μM compound, mProx24, 100% = control without hTGF-β1, 0% = hTGF-β1 alone, read-out: expression inhibition rate (collagen Iα1)) of 33.5%. It also gave an inhibition at 1 µM (1 μM compound, mProx24, 100% = control without hTGF-β1, 0% = hTGF-β1 alone, read-out: expression inhibition rate (collagen Iα1)) of 54.2%, an inhibition at 10 µM (10 μM compound, mProx24, 100% = control without hTGF-β1, 0% = hTGF-β1 alone, read-out: expression inhibition rate (collagen Iα1)) of 70.7% and an IC50 (mProx24, hTGF-β1 stimulated, read-out: IC50 (inhibition of collagen Iα1 expression)) of 742 nM.
